According to patent US20230060873A1, “COMPOUNDS AND METHODS FOR FORMING ION CHANNELS IN BIOLOGICAL MEMBRANES” (Washington University, priority 2021, published 2023):
≈ marks a conversion by molar mass, not a printed value.

Experiments:
Escherichia coli = test: Toxicity (MIC) of dialkylated lariat ethers on E. coli; type: cell-based; settings: E. coli XL1 blue, 12 h, visual turbidity, read-out: minimum inhibitory concentration (MIC)
Protocol: (§1) The cyto-toxicity was determined by measuring the minimum inhibitory concentrations (MIC) for this series of dialkylated lariat ethers in the Gram-negative bacteria Escherichia coli, the Gram-positive bacteria Bacillus subtilis, and human embryonic kidney (HEK293T) cells.
On bacteria. XL1 blue strain Escherichia coli cells transformed with a pET28a plasmid (which contains a kanamycin resistance gene) were grown at 37° C. in 2 mL of LB medium (Miller's LB broth, Research Products International) supplemented with 50 μg/mL of kanamycin until the optical density (600 nm) reached 0.600. The starting density of bacteria in the remainder of the experiments was a 1/100 dilution of this bacterial density, which was split into 4 mL cultures. A series of 400, 100, 10 and 5 mM stock solutions of each dialkylated diaza(18-crown-6) compounds in trifluoroethanol (TFE) were diluted by adding to the 4 mL cultures until final concentrations of 400, 200, 100, 50, 20, 15, 10, 5, 4, 3, 2 and 1 μM were reached, with the final TFE concentration never >0.1% v/v. Negative controls in the presence of TFE 0.1% v/v or the absence of any treatment were done for each batch. The cultures were incubated at 37° C. with agitation for 12 h. Bacillus subtilis (168 WT) toxicity tests were carried out using an identical protocol, except for the addition of the antibiotic. […]

Bacillus subtilis = test: Toxicity (MIC) of dialkylated lariat ethers on B. subtilis; type: cell-based; settings: B. subtilis 168 WT, 12 h, visual turbidity, read-out: minimum inhibitory concentration (MIC)
Protocol: as §1
On bacteria. XL1 blue strain Escherichia coli cells transformed with a pET28a plasmid (which contains a kanamycin resistance gene) were grown at 37° C. in 2 mL of LB medium (Miller's LB broth, Research Products International) supplemented with 50 μg/mL of kanamycin until the optical density (600 nm) reached 0.600. The starting density of bacteria in the remainder of the experiments was a 1/100 dilution of this bacterial density, which was split into 4 mL cultures. A series of 400, 100, 10 and 5 mM stock solutions of each dialkylated diaza(18-crown-6) compounds in trifluoroethanol (TFE) were diluted by adding to the 4 mL cultures until final concentrations of 400, 200, 100, 50, 20, 15, 10, 5, 4, 3, 2 and 1 μM were reached, with the final TFE concentration never >0.1% v/v. Negative controls in the presence of TFE 0.1% v/v or the absence of any treatment were done for each batch. The cultures were incubated at 37° C. with agitation for 12 h. Bacillus subtilis (168 WT) toxicity tests were carried out using an identical protocol, except for the addition of the antibiotic. […] Each compound was assayed a minimum of three times at each tested concentration.

B. subtilis membrane = test: DiSC3(5) depolarization assay, lariat ethers; type: cell-based, Bacillus subtilis; settings: for DiSC3(5) release: 2 μM, cation-free dextrose solution
Protocol: Dialkylated lariat ethers LEC6-LEC14 were then tested for their ability to depolarize a B. subtilis membrane using the fluorescent dye 3,3-dipropylthiadicarbocyanine (DiSC3(5)), which undergoes membrane voltage-dependent partitioning between the intracellular and the extracellular medium. FIGS. 23-31 show the time course of the DiSC3(5) fluorescence due to the activity of dialkylated lariat ethers with alkyl chains 6 to 14 carbons in length. The experiment was performed in a NMDG-MeSO3 solution (100 mM NMDG, 10 mM HEPES, pH adjusted to 7.4 with methanesulfonic acid). The events are: t1, addition of dye; t2, addition of B. subtilis; t3, addition of a 2 M KCl or a 2 M NMDG-Cl solution up to a final concentration of 60 mM; t4, addition of dialkylated lariat ether up to 2 μM. Control experiments were performed that were similar to the two previously described experiments, with the exception that additional NMDG-MeSO3 solution without cells was added at timepoint t2. The experiments were normalized relative to the final fluorescence intensity in the control experiments, as described below.
To conduct the experiments shown in FIGS. 23-31, a 2-mL liquid culture of B. subtilis cells was grown at 37° C. in LB media until OD600=0.600, and then collected by centrifugation at 2000 rpm during 3 min. The bacteria were washed once in NMDG-MeSO3 solution (100 mM NMDG, 10 mM HEPES, pH adjusted to 7.4 with methanesulfonic acid) or dextrose solution (200 mM dextrose, 10 mM Tris, pH adjusted to 7.4 with HCl) depending on the experiment. The centrifugation step was repeated and the bacteria were resuspended until OD600=1.0 in the same solution. The working dye solution was a 200 μM solution of DiSC3(5) (3,3′-dipropylthiadicarbocyanine iodide; Tokyo Chemical Industry) in DMSO. […] After 150 sec (timepoint t3, 250 sec) the fluorescence stabilized to a minimum intensity and 100 μL of 2M NMDG-Cl, 2M NaCl or 2 M KCl solution was added to reach a about 60 mM final concentration of the salt. […] Fluorescence intensity was recorded each second using a Horiba Fluoromax 4 spectrometer (excitation wavelength=640 nm; emission wavelength=670 nm). […] To normalize the fluorescence, experiments in the same conditions but without adding bacteria were performed, normalization was done by dividing the fluorescence by the final fluorescence level of these experiments.
Cell hyperpolarization (more negatively charged inside the cell) results in an uptake of the dye, while cell membrane depolarization (more positively charged inside the cell) results in a release of the dye. The accumulation of the dye in the interior of the cell can be detected by a decrease in fluorescence due to self-quenching, which enables the dye to be utilized as an indirect reporter of changes in cell membrane voltage. […]

## CCCCCCCCCCN1CCOCCOCCN(CCCCCCCCCC)CCOCCOCC1 [LEC10, Didecyl diaza(18-crown-6)]
Escherichia coli
  MIC: 10 µM (≈ 5.43 µg/mL)
Bacillus subtilis
  MIC: 2 µM (≈ 1.09 µg/mL)
B. subtilis membrane; 2 μM compound, 60 mM KCl, NaCl or NMDG-Cl, NMDG-MeSO3 solution, 25° C
  relative DiSC3(5) release in the presence of different cations: no significant differences
B. subtilis membrane; 60 mM KCl added
  DiSC3(5) release: large DiSC3(5) release
B. subtilis membrane; absence of any external cation
  DiSC3(5) release: same effect was also observed
